Each structure is given as a SMILES string. Values joined by “and” are separate entries in the source; they are usually repeats but may differ in a detail not shown here. Equal values may be shown once.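 Test compounds were applied to cells in 96-well plates for 48 hours at 5 doses. GI50: concentration for 50% inhibition of growth. TGI marks complete inhibition of growth.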

Test systems include CCRF-CEM leukemia; HOP-92 NSCLC; HT29 colon; KM12 colon; M14 melanoma; NCI-H226 lung; RPMI-8226 leukemia; SW-620 colon; UACC-257 melanoma; UO-31 renal.
Holding throughout (assay): NCI anticancer screen, dose series, 48 h

Regarding `Cc1c(/C=N/NC(=O)c2ccc(Cl)cc2)c(=O)n(-c2ccccc2)n1C`, the TGI in the test with CCRF-CEM leukemia, in the test on HOP-92 NSCLC, with HT29 colon, with KM12 colon, in the test with M14 melanoma and in the test with NCI-H226 lung was over 100 µM in each case. Further, the TGI in the test with RPMI-8226 leukemia, in the test on SW-620 colon, with UACC-257 melanoma and in the test with UO-31 renal was over 100 µM throughout.

Turning to `CCN(Cc1ccccc1C)c1ccc(CO)c(Cl)c1`, the GI50 in the test on CCRF-CEM leukemia was 15.5 µM; with HOP-92 NSCLC, 1.83 µM; in the test with HT29 colon it was 9.97 µM; in the test on KM12 colon, 11.8 µM; in the test on M14 melanoma, 15.3 µM; in the test with NCI-H226 lung, 0.0375 µM. Further, the GI50 in the test with RPMI-8226 leukemia was 4.04 µM; in the test with SW-620 colon, 3.74 µM; in the test on UACC-257 melanoma, 0.278 µM; in the test with UO-31 renal it was 12.9 µM. In addition, the TGI with CCRF-CEM leukemia is 38.2 µM; in the test on HOP-92 NSCLC it was 9.14 µM; in the test with HT29 colon it was 26.3 µM; with KM12 colon, 26.6 µM; in the test on M14 melanoma it was 31.2 µM; in the test with NCI-H226 lung, 0.201 µM. The TGI in the test on RPMI-8226 leukemia is 23.5 µM; in the test on SW-620 colon, 18.5 µM; in the test with UACC-257 melanoma, 1.67 µM; in the test on UO-31 renal, 32.9 µM.

For the compound `O=C(O)CC(NC(=O)CP(=O)(O)O)C(=O)O` (stereo not drawn), the TGI in the test on CCRF-CEM leukemia is over 10000 µM; in the test with HOP-92 NSCLC, 2380 µM; in the test with HT29 colon, over 10000 µM; with KM12 colon, over 10000 µM; in the test with M14 melanoma, over 10000 µM; with NCI-H226 lung it was 7210 µM. In addition, the TGI in the test on RPMI-8226 leukemia, with SW-620 colon, in the test on UACC-257 melanoma and with UO-31 renal was over 10000 µM each time. The GI50 in the test with KM12 colon is 95.5 µM; in the test on UACC-257 melanoma it was 3150 µM.

Regarding `CC(C)C(=O)Nc1nc2c(ncn2C2OC(CO)C(O)C2O)c(=O)[nH]1` (stereo not drawn), the TGI in the test with CCRF-CEM leukemia, in the test on HOP-92 NSCLC, with HT29 colon, in the test on KM12 colon, with M14 melanoma and in the test on NCI-H226 lung was over 100 µM each time. The TGI in the test with RPMI-8226 leukemia, in the test with SW-620 colon, with UACC-257 melanoma and with UO-31 renal was over 100 µM each time.

Consider `CC(=O)Oc1ccccc1C(=O)Nc1ncc([N+](=O)[O-])s1`, for which the GI50 with CCRF-CEM leukemia was 2.14 µM; in the test on HOP-92 NSCLC, 0.227 µM; with HT29 colon, 3.37 µM; in the test with KM12 colon, 3 µM; in the test with M14 melanoma, 2.54 µM; in the test on NCI-H226 lung, 2.62 µM. Besides, the GI50 with RPMI-8226 leukemia was 0.677 µM; in the test on SW-620 colon it was 2.76 µM; with UACC-257 melanoma, 2.16 µM; in the test with UO-31 renal, 2.16 µM. Further, the TGI in the test on CCRF-CEM leukemia was 15.1 µM; in the test on HOP-92 NSCLC, 0.966 µM and 8.1 µM; in the test with HT29 colon it was 13.5 µM and 97.5 µM; in the test with M14 melanoma it was 7.23 µM and 55.9 µM; in the test on NCI-H226 lung, 8.7 µM and 36.7 µM; in the test with RPMI-8226 leukemia, over 100 µM. The compound further had a TGI in the test on SW-620 colon of over 100 µM.

For `O=S(=O)(c1ccccc1)C1CN2OC1(S(=O)(=O)c1ccccc1)CC2c1ccc(Br)cc1` (stereo not drawn), the TGI in the test on CCRF-CEM leukemia, in the test on HOP-92 NSCLC, in the test on HT29 colon, in the test on KM12 colon, in the test on M14 melanoma and in the test on NCI-H226 lung was over 100 µM each time. Further, the TGI in the test on RPMI-8226 leukemia, with SW-620 colon, in the test on UACC-257 melanoma and with UO-31 renal was over 100 µM in each case.

On to `CC(C)(S)C(N)C(=O)O` (stereo not drawn), for which the GI50 was 612 µM with CCRF-CEM leukemia; 2960 µM in the test with HOP-92 NSCLC; over 5000 µM in the test on HT29 colon; 1470 µM with KM12 colon; 4370 µM with M14 melanoma; over 5000 µM in the test on NCI-H226 lung. For the same compound, the GI50 in the test on RPMI-8226 leukemia is 3830 µM; in the test on SW-620 colon, 2220 µM; in the test with UACC-257 melanoma it was 4860 µM; in the test on UO-31 renal it was over 5000 µM. Moreover, the TGI in the test on CCRF-CEM leukemia is over 5000 µM; in the test on HOP-92 NSCLC, over 5000 µM; in the test with HT29 colon it was over 5000 µM; with KM12 colon it was 4710 µM and > 100 µM; in the test with M14 melanoma, over 5000 µM; in the test with NCI-H226 lung, over 5000 µM. Besides, the TGI in the test on RPMI-8226 leukemia, in the test with SW-620 colon, with UACC-257 melanoma and with UO-31 renal was over 5000 µM in each case.

As for `NC(=O)c1cc(S(=O)(=O)Nc2nnc(-c3ccccc3)c(-c3ccccc3)n2)c(SCc2ccccc2)cc1Cl`, the GI50 was over 50.4 µM in the test on CCRF-CEM leukemia; over 100 µM in the test on HOP-92 NSCLC; over 62.6 µM in the test on KM12 colon; over 100 µM with M14 melanoma; over 46.9 µM with NCI-H226 lung; over 44.1 µM with RPMI-8226 leukemia. Moreover, the GI50 was over 56.1 µM in the test with SW-620 colon, over 48.2 µM in the test with UACC-257 melanoma and over 100 µM in the test on UO-31 renal. The TGI was over 82.3 µM in the test on CCRF-CEM leukemia; over 100 µM in the test on HOP-92 NSCLC; over 100 µM in the test on HT29 colon; over 100 µM in the test on KM12 colon; over 100 µM with M14 melanoma; over 69.4 µM in the test with NCI-H226 lung. In addition, the TGI is over 65.1 µM with RPMI-8226 leukemia, over 100 µM in the test with SW-620 colon, over 89.9 µM with UACC-257 melanoma and over 100 µM with UO-31 renal.
